Assay results as given in ChEMBL document CHEMBL5046262, “Fragment-Based Discovery of MRTX1719, a Synthetic Lethal Inhibitor of the PRMT5•MTA Complex for the Treatment of MTAP-Deleted Cancers” (J Med Chem, 2022).
Several values for one entry are separate records, joined by “and”; a condition that tells them apart may be missing. Identical values can stand only once.

Legend:
[1] = Intrinsic clearance in mouse hepatocytes; assay type: ADME, cell-based, Hepatocyte; details: read-out: CLH
[2] = Intrinsic clearance in human hepatocytes; assay type: ADME, cell-based, Hepatocyte; details: read-out: CLH
[3] = Apparent permeability across apical to basolateral side in dog MDCKII-MDR1 cells at 2 uM incubated for 2.5 hrs by LC-MS/MS analysis; assay type: ADME, cell-based, Canis lupus familiaris, MDCK-MDR1; details: MDCK-MDR1
HCT-116 [4] = test: Antiproliferative activity against human HCT-116 cells expressing wild type MTAP assessed as reduction in cell viability incubated for 5 days followed by replacement with fresh medium containing compound and measured after 5 days by CTG assay; assay type: functional, cell-based
[5] = Efflux ratio of apparent permeability across basolateral to apical side over apical to basolateral side in dog MDCKII-MDR1 cells at 2 uM incubated for 2.5 hrs by LC-MS/MS analysis; assay type: ADME, cell-based, Canis lupus familiaris, MDCK-MDR1; details: for efflux ratio at 2.5 h, 2 µM: MDCK-MDR1
HCT-116 [6] = test: Antiproliferative activity against MTAP knockout human HCT-116 cells assessed as reduction in cell viability incubated for 5 days followed by replacement with fresh medium containing compound and measured after 5 days by CTG assay; assay type: functional, cell-based
[7] = biological target: T1, Protein arginine N-methyltransferase 5 (Homo sapiens, UniProt O14744); test: Inhibition of PRMT5 methyltransferase activity in MTAP knockout human HCT-116 cells assessed as inhibition of PRMT5- mediated SDMA modification level incubated for 96 hrs by Western blot analysis; assay type: cell-based
[8] = biological target: T1, Protein arginine N-methyltransferase 5; test: Inhibition of PRMT5 methyltransferase activity in human HCT-116 cells expressing wild type MTAP assessed as inhibition of PRMT5- mediated SDMA modification level incubated for 96 hrs by Western blot analysis; assay type: cell-based
[9] = biological target: T1, Protein arginine N-methyltransferase 5
[10] = biological target: T1, Protein arginine N-methyltransferase 5; remark: listed apart in the source
Homo sapiens [11] = species on record: Homo sapiens; test: Selectivity ratio of IC50 for inhibition of human PRMT5 co-complexed with MEP50 in absence of MTA to IC50 for inhibition of MTA-bound human PRMT5 co-complexed with MEP50
Homo sapiens [12] = species on record: Homo sapiens; test: Selectivity ratio of IC50 for inhibition of PRMT5 methyltransferase activity in human HCT-116 cells expressing wild type MTAP to IC50 for nhibition of PRMT5 methyltransferase activity in MTAP knockout human HCT-116 cells; assay type: cell-based
[13] = Total clearance in CD-1 mouse at 3 mg/kg, iv measured upto 24 hrs by LC-MS/MS analysis; assay type: ADME, organism-based; details: in vivo
[14] = Half life in CD-1 mouse at 3 mg/kg, iv measured upto 24 hrs by LC-MS/MS analysis; assay type: ADME, organism-based; details: in vivo
[15] = Oral bioavailability in CD-1 mouse at 30 mg/kg administered via gavage measured upto 24 hrs by LC-MS/MS analysis; assay type: ADME, organism-based; details: in vivo
[16] = Volume of distribution at steady state in CD-1 mouse at 3 mg/kg, iv measured upto 24 hrs by LC-MS/MS analysis; assay type: ADME, organism-based; details: in vivo, read-out: Vdss

T1 sequence (O14744 whole entry): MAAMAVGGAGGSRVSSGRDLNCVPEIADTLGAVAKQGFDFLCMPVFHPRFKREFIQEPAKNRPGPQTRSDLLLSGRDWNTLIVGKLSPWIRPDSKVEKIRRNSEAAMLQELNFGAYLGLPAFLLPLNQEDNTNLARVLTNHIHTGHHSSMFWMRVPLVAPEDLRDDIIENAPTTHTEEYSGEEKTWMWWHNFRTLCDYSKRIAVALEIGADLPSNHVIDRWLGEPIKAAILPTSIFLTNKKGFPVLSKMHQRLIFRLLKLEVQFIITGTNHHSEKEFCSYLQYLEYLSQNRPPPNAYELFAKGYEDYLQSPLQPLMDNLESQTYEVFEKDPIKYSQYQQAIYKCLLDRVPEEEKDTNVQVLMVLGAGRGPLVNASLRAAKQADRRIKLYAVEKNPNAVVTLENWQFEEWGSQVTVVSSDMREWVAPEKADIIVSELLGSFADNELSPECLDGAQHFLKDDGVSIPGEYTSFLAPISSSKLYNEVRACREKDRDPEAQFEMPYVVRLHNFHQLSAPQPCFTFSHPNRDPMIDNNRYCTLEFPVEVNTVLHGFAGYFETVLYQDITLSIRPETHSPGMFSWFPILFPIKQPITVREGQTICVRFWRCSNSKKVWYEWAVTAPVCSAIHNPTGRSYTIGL

Compound	CLint scaled [1] [mL/min/kg]	CLint scaled [2] [mL/min/kg]	Papp A→B at 2.5 h, 2 µM [3] [×10⁻⁶ cm/s]	IC50 (HCT-116 [4])	efflux ratio at 2.5 h, 2 µM [5]	IC50 (HCT-116 [6])	IC50 [7] [µM]	IC50 [8]	IC50 [9] [µM]	IC50 [10] [µM]	Ratio IC50 (Homo sapiens [11])	Ratio ([5]; mdck-mdr1, 2.5 h, 2 µM, 2.5 h)	Ratio IC50 (Homo sapiens [12])	clearance [13] [mL/min/kg]	half-life [14] [h]	bioavailability [15] [%]	Vd [16] [L/kg]
Cn1ncc(-c2ccc3c(=O)[nH]nc(CN)c3c2)c1-c1ccc2ccccc2c1C#N	340	< 18	0.4	1.98 µM	99	0.049 µM	0.011	1.21 µM									
Cn1ncc(-c2ccc3c(=O)[nH]nc(CN)c3c2)c1-c1sc2ccccc2c1C#N	280	41	0.6	5.8 µM	58	0.058 µM	0.005	> 1 µM									
NCc1n[nH]c(=O)c2ccc(-c3cncs3)cc12			14.6		0.6												
Cn1ncc(-c2ccc3c(=O)[nH]nc(CN)c3c2)c1-c1ccccc1	123	23	1.5	4.06 µM	20	3.65 µM	2.47	9.81 µM	3								
CCCn1cc(-c2ccc3c(=O)[nH]nc(CN)c3c2)cn1			3.2		2.7				0.32	7.65	24						
NCc1n[nH]c(=O)c2ccc(-c3cnn(CCO)c3)cc12			0.9		0.9					11.2	16						
Cc1c(-c2ccc3c(=O)[nH]nc(CN)c3c2)cnn1C			4.9		0.6				0.05	1.29	26						
NCc1n[nH]c(=O)c2ccc(-c3cnsc3)cc12			11.1		0.8				0.71	11.6	16						
NCc1n[nH]c(=O)c2ccc(-c3cccnc3)cc12			2.8		0.7				0.91	19	21						
Cn1ncc(-c2ccc3c(=O)[nH]nc(CN)c3c2)c1-c1c(F)cccc1C#N	171	18	0.3	7.44 µM	42	0.761 µM	0.322	> 10 µM	4								
Cn1ncc(-c2ccc3c(=O)[nH]nc(CN)c3c2)c1-c1c(F)ccc(OC2CC2)c1C#N	143	18	0.2	2.18 µM and 3.62 µM and 4.21 µM	143	0.043 µM and 0.017 µM and 0.112 µM		1.05 µM and 4.48 µM				123 and 150					
NCc1n[nH]c(=O)c2ccc(-c3ccccc3)cc12											3						
COc1cccc(-c2c(-c3ccc4c(=O)[nH]nc(CN)c4c3)cnn2C)c1C#N	137	< 18	0.6	> 10 µM	20	0.851 µM	0.062	> 10 µM	1								
Cc1ccc(-c2ccc3c(=O)[nH]nc(CN)c3c2)cn1			4.7		3.5				5.8	69	12						
Cn1ncc(-c2ccc3c(=O)[nH]nc(CN)c3c2)c1-c1ccccc1C#N	148	< 18	1.6	> 10 µM	7	5.23 µM	0.826	3.17 µM	4				4				
NCc1n[nH]c(=O)c2ccc(-c3cccnn3)cc12			1.1		0.9				30.1	> 100							
CCc1cccc(-c2c(-c3ccc4c(=O)[nH]nc(CN)c4c3)cnn2C)c1C#N	523	18	0.3	> 10 µM	35	0.175 µM	0.079	3.21 µM	2								
Cn1ncc(-c2ccc3c(=O)[nH]nc(CN)c3c2)c1-c1cc2ccccc2cc1C#N	212	< 18	0.5	5.09 µM	31	0.264 µM	0.118										
CC(=O)N1CCC(Nc2cc(C(=O)NC[C@H](O)CN3CCc4ccccc4C3)ncn2)CC1 [PEMRAMETOSTAT]				0.237 µM		0.189 µM											
Cn1ncc(-c2ccc3c(=O)[nH]nc(CN)c3c2)c1-c1cccc(Cl)c1C#N	232	< 18	0.7	> 10 µM	35	0.544 µM	0.062	8.81 µM	2					121	1.3	12	6.6
Cc1cc(OC2CC2)c(C#N)c(-c2c(-c3ccc4c(=O)[nH]nc(CN)c4c3)cnn2C)c1	175	21	0.4	1.29 µM	62	0.077 µM	0.009										
Cn1ncc(-c2ccc3c(=O)[nH]nc(CN)c3c2)c1-c1c(Cl)ccc(OC2CC2)c1C#N	332	< 18	0.3	1.65 µM	131	0.091 µM	0.011	> 1 µM									
CC(C)n1cc(-c2ccc3c(=O)[nH]nc(CN)c3c2)cn1			1.31		20.1				0.67	11.4	17						
Cc1cccc(-c2c(-c3ccc4c(=O)[nH]nc(CN)c4c3)cnn2C)c1C#N	296	29	0.6	> 10 µM	36	0.365 µM	0.101	8.83 µM	3								
NCc1n[nH]c(=O)c2ccc(-c3ccccn3)cc12			9.3		1.2				95.8	> 100							
CCn1cc(-c2ccc3c(=O)[nH]nc(CN)c3c2)cn1			2		6.2				0.51	10.6	21						
